Reference: publication PMC6219668 (Oncotarget, 2018)
Where two headings read alike, the source gives them in different places.

System: panel of nearly 500 cancer cell lines
Assay: Cancer Cell Line Encyclopedia profiling, 3-day CellTiter-Glo
Type: cell-based
Details: read-out: IC50

## CC(=O)c1c(C)c2cnc(Nc3ccc(N4CCNCC4)cn3)nc2n(C2CCCC2)c1=O [Palbociblib]
22rv1 (prostate)
  IC50: > 8 µM
639v (urinary_tract)
  IC50: > 8 µM
769p (kidney)
  IC50: 6.7 µM
5637 (urinary_tract)
  IC50: > 8 µM
8305c (thyroid)
  IC50: 5.34 µM
8505c (thyroid)
  IC50: > 8 µM
a172 (central_nervous_system)
  IC50: > 8 µM
a204 (soft_tissue)
  IC50: > 8 µM
a253 (salivary_gland)
  IC50: > 8 µM
a375 (skin)
  IC50: > 8 µM
a549 (lung)
  IC50: > 8 µM
a673 (bone)
  IC50: > 8 µM
a2058 (skin)
  IC50: > 8 µM
a2780 (ovary)
  IC50: > 8 µM
amo1 (haematopoietic_and_lymphoid_tissue)
  IC50: > 8 µM
an3ca (endometrium)
  IC50: 7.05 µM
aspc1 (pancreas)
  IC50: > 8 µM
au565 (breast)
  IC50: 7.56 µM
az521 (stomach)
  IC50: > 8 µM
Bdcm (haematopoietic_and_lymphoid_tissue)
  IC50: 1.92 µM
bftc909 (kidney)
  IC50: > 8 µM
bgc823 (stomach)
  IC50: > 8 µM
bl41 (haematopoietic_and_lymphoid_tissue)
  IC50: > 8 µM
bl70 (haematopoietic_and_lymphoid_tissue)
  IC50: 4.53 µM
bt20 (breast)
  IC50: > 8 µM
bt474 (breast)
  IC50: > 8 µM
bt549 (breast)
  IC50: > 8 µM
c2bbe1 (large_intestine)
  IC50: > 8 µM
c3a (liver)
  IC50: > 8 µM
c32 (skin)
  IC50: > 8 µM
caki2 (kidney)
  IC50: > 8 µM
cal27 (upper_aerodigestive_tract)
  IC50: > 8 µM
cal78 (bone)
  IC50: > 8 µM
cal851 (breast)
  IC50: > 8 µM
calu1 (lung)
  IC50: > 8 µM
calu3 (lung)
  IC50: > 8 µM
cama1 (breast)
  IC50: > 8 µM
capan2 (pancreas)
  IC50: > 8 µM
cas1 (central_nervous_system)
  IC50: > 8 µM
Cell line tyknu, ovary
  IC50: > 8 µM
Cell line u87mg, central_nervous_system
  IC50: > 8 µM
Cell line u118mg, central_nervous_system
  IC50: > 8 µM
Cell line u2os, bone
  IC50: > 8 µM
Cell line u937, haematopoietic_and_lymphoid_tissue
  IC50: > 8 µM
Cell line uacc812, breast
  IC50: > 8 µM
Cell line umuc3, urinary_tract
  IC50: > 8 µM
Cell line vmrclcd, lung
  IC50: 1.86 µM
Cell line vmrcrcw, kidney
  IC50: > 8 µM
Cell line vmrcrcz, kidney
  IC50: > 8 µM
Cell line ykg1, central_nervous_system
  IC50: 7.34 µM
Cell line zr7530, breast
  IC50: > 8 µM
chl1 (skin)
  IC50: > 8 µM
ci1 (haematopoietic_and_lymphoid_tissue)
  IC50: 6.5 µM
Cmk (haematopoietic_and_lymphoid_tissue)
  IC50: 5.49 µM
colo201 (large_intestine)
  IC50: 1.48 µM
colo205 (large_intestine)
  IC50: 7.19 µM
colo320 (large_intestine)
  IC50: 6.83 µM
colo679 (skin)
  IC50: > 8 µM
corl23 (lung)
  IC50: > 8 µM
corl23cpr (lung)
  IC50: > 8 µM
cov318 (ovary)
  IC50: > 8 µM
cov504 (ovary)
  IC50: > 8 µM
Daoy (central_nervous_system)
  IC50: > 8 µM
dbtrg05mg (central_nervous_system)
  IC50: > 8 µM
detroit562 (upper_aerodigestive_tract)
  IC50: 3.17 µM
Dkmg (central_nervous_system)
  IC50: > 8 µM
dms114 (lung)
  IC50: > 8 µM
dov13 (ovary)
  IC50: > 8 µM
du145 (prostate)
  IC50: > 8 µM
eb1 (haematopoietic_and_lymphoid_tissue)
  IC50: > 8 µM
eb2 (haematopoietic_and_lymphoid_tissue)
  IC50: > 8 µM
ebc1 (lung)
  IC50: > 8 µM
efe184 (endometrium)
  IC50: > 8 µM
efm19 (breast)
  IC50: > 8 µM
efo21 (ovary)
  IC50: > 8 µM
efo27 (ovary)
  IC50: > 8 µM
En (endometrium)
  IC50: > 8 µM
es2 (ovary)
  IC50: > 8 µM
Fadu (upper_aerodigestive_tract)
  IC50: > 8 µM
fuov1 (ovary)
  IC50: > 8 µM
g361 (skin)
  IC50: > 8 µM
g401 (soft_tissue)
  IC50: > 8 µM
gb1 (central_nervous_system)
  IC50: > 8 µM
Gciy (stomach)
  IC50: > 8 µM
Gct (soft_tissue)
  IC50: 4.08 µM
glc82 (lung)
  IC50: > 8 µM
gms10 (central_nervous_system)
  IC50: > 8 µM
h4 (central_nervous_system)
  IC50: > 8 µM
hcc15 (lung)
  IC50: > 8 µM
hcc56 (large_intestine)
  IC50: > 8 µM
hcc70 (breast)
  IC50: > 8 µM
hcc78 (lung)
  IC50: > 8 µM
hcc1187 (breast)
  IC50: > 8 µM
hcc1569 (breast)
  IC50: > 8 µM
hcc1806 (breast)
  IC50: > 8 µM
hcc1954 (breast)
  IC50: 2.51 µM
hcc2935 (lung)
  IC50: > 8 µM
hcc4006 (lung)
  IC50: > 8 µM
hct15 (large_intestine)
  IC50: > 8 µM
hct116 (large_intestine)
  IC50: > 8 µM
hec1a (endometrium)
  IC50: > 8 µM
hec1b (endometrium)
  IC50: 4.96 µM
hec59 (endometrium)
  IC50: > 8 µM
hec151 (endometrium)
  IC50: > 8 µM
hec251 (endometrium)
  IC50: > 8 µM
hec265 (endometrium)
  IC50: > 8 µM
hel9217 (haematopoietic_and_lymphoid_tissue)
  IC50: > 8 µM
hep3b217 (liver)
  IC50: > 8 µM
hepg2 (liver)
  IC50: > 8 µM
heya8 (ovary)
  IC50: > 8 µM
hgc27 (stomach)
  IC50: 1.74 µM
Hh (haematopoietic_and_lymphoid_tissue)
  IC50: > 8 µM
Hle (liver)
  IC50: > 8 µM
Hlf (liver)
  IC50: > 8 µM
hmc18 (breast)
  IC50: > 8 µM
Hmcb (skin)
  IC50: > 8 µM
Hos (bone)
  IC50: > 8 µM
Hpac (pancreas)
  IC50: > 8 µM
hs229t (lung)
  IC50: > 8 µM
hs294t (skin)
  IC50: > 8 µM
hs578t (breast)
  IC50: > 8 µM
hs683 (central_nervous_system)
  IC50: > 8 µM
hs695t (skin)
  IC50: > 8 µM
hs739t (breast)
  IC50: > 8 µM
hs746t (stomach)
  IC50: > 8 µM
hs766t (pancreas)
  IC50: > 8 µM
hs840t (upper_aerodigestive_tract)
  IC50: > 8 µM
hs852t (skin)
  IC50: > 8 µM
hs895t (skin)
  IC50: 0.446 µM
hs936t (skin)
  IC50: > 8 µM
hs939t (skin)
  IC50: > 8 µM
hs944t (skin)
  IC50: > 8 µM
hsc2 (upper_aerodigestive_tract)
  IC50: > 8 µM
ht29 (large_intestine)
  IC50: > 8 µM
ht144 (skin)
  IC50: > 8 µM
ht1080 (soft_tissue)
  IC50: > 8 µM
ht1197 (urinary_tract)
  IC50: > 8 µM
ht1376 (urinary_tract)
  IC50: > 8 µM
Ht (haematopoietic_and_lymphoid_tissue)
  IC50: > 8 µM
hucct1 (biliary_tract)
  IC50: > 8 µM
huh1 (liver)
  IC50: > 8 µM
hupt3 (pancreas)
  IC50: > 8 µM
hupt4 (pancreas)
  IC50: > 8 µM
hut78 (haematopoietic_and_lymphoid_tissue)
  IC50: > 8 µM
Ialm (lung)
  IC50: > 8 µM
igr37 (skin)
  IC50: > 8 µM
igr39 (skin)
  IC50: > 8 µM
igrov1 (ovary)
  IC50: > 8 µM
imr32 (autonomic_ganglia)
  IC50: > 8 µM
ipc298 (skin)
  IC50: > 8 µM
istmes1 (pleura)
  IC50: > 8 µM
istmes2 (pleura)
  IC50: 0.428 µM
j82 (urinary_tract)
  IC50: > 8 µM
jhh2 (liver)
  IC50: > 8 µM
jhh4 (liver)
  IC50: > 8 µM
jhh6 (liver)
  IC50: > 8 µM
jhos2 (ovary)
  IC50: > 8 µM
jhos4 (ovary)
  IC50: > 8 µM
jm1 (haematopoietic_and_lymphoid_tissue)
  IC50: > 8 µM
jmsu1 (urinary_tract)
  IC50: > 8 µM
k029ax (skin)
  IC50: > 8 µM
kals1 (central_nervous_system)
  IC50: > 8 µM
karpas299 (haematopoietic_and_lymphoid_tissue)
  IC50: 7.35 µM
karpas422 (haematopoietic_and_lymphoid_tissue)
  IC50: > 8 µM
ke39 (stomach)
  IC50: 3.54 µM
ke97 (haematopoietic_and_lymphoid_tissue)
  IC50: 2.59 µM
kg1 (haematopoietic_and_lymphoid_tissue)
  IC50: > 8 µM
Kle (endometrium)
  IC50: > 8 µM
kmbc2 (urinary_tract)
  IC50: > 8 µM
kmrc1 (kidney)
  IC50: > 8 µM
kms12bm (haematopoietic_and_lymphoid_tissue)
  IC50: > 8 µM
kms26 (haematopoietic_and_lymphoid_tissue)
  IC50: 1.67 µM
kns42 (central_nervous_system)
  IC50: > 8 µM
kns60 (central_nervous_system)
  IC50: > 8 µM
kp1n (pancreas)
  IC50: > 8 µM
kp1nl (pancreas)
  IC50: > 8 µM
kp2 (pancreas)
  IC50: > 8 µM
kp3 (pancreas)
  IC50: > 8 µM
kp4 (pancreas)
  IC50: > 8 µM
ku812 (haematopoietic_and_lymphoid_tissue)
  IC50: 6.25 µM
kyse30 (oesophagus)
  IC50: > 8 µM
kyse410 (oesophagus)
  IC50: > 8 µM
kyse520 (oesophagus)
  IC50: > 8 µM
l33 (pancreas)
  IC50: > 8 µM
lc1sqsf (lung)
  IC50: > 8 µM
lclc103h (lung)
  IC50: > 8 µM
ln18 (central_nervous_system)
  IC50: > 8 µM
ln229 (central_nervous_system)
  IC50: > 8 µM
lounh91 (lung)
  IC50: > 8 µM
